Measured values from publication PMC7009771 (EFSA Journal, 2018).
Read-outs that look alike come from different tables or passages of the source.

Assays:
[1] = Nitrosation rate constant; details: pH 3.4; estimated from kDMA by correction for the pKa difference
[2] = test system: bone marrow of Hsd:ICR (CD-1) mice; details: cited from earlier work; for maximum tolerated dose (MTD): range-finder, oral gavage, ref BioReliance, 2014
bone marrow of CD-1 mice = details: positive control, 60 mg/kg bw per day; ref WIL Research (2013a); cited from earlier work
[3] = test system: human peripheral blood lymphocytes (HPBL); details: ref BioReliance (2013b), cited from earlier work; for Chromosome aberration result (structural aberrations): 4 + 16 h in the absence of S9-mix
[4] = test system: S. Typhimurium strains TA98, TA100, TA1535 and TA1537 and E. coli strain WP2 uvrA; details: up to 5,000 μg/plate, ref BioReliance (2013a), cited from earlier work; for Bacterial reverse mutation result: plate incorporation, with and without metabolic activation
[5] = carcinogenic potential; ref EC SCCS, 2012, EFSA ANS Panel, 2017; cited from earlier work

c1csc(CNc2cc[nH]n2)c1 [M179, N‐(thiophen‐2‐ylmethyl)‐1H‐pyrazol‐3‐amine]
rate constant of nitrosation (kM179), estimated [1]: 0.0017 × 10^−4 M^−2s^−1

O=S(=O)(O)O.c1csc(CNc2cc[nH]n2)c1.c1csc(CNc2cc[nH]n2)c1 [S2312, hemisulfate salt of N‐(thiophen‐2‐ylmethyl)‐1H‐pyrazol‐3‐amine]
clinical signs observed ([2]; mice, 125-1,000 mg/kg bw per day, gavage, ref BioReliance (2014)): piloerection (at all dose levels), lethargy (at 500 and 1,000 mg/kg bw per day), prostration, irregular breathing and crusty eyes (at 1,000 mg/kg bw per day in female mice)
mortality ([2]; mice, any dose level up to 1,000 mg/kg bw per day, ref BioReliance (2014)): No mortality
maximum tolerated dose (MTD) ([2]; female mice): 1,000 mg/kg bw per day
maximum tolerated dose (MTD) ([2]; male mice): 500 mg/kg bw per day

O=P1(N(CCCl)CCCl)NCCCO1 (stereo not drawn) [CP, Cyclophosphamide monohydrate, reference compound]
frequency of MNPCEs, positive control (bone marrow of CD-1 mice): statistically significant increase

Cl.c1csc(CNc2cc[nH]n2)c1 [S1140, N‐(Thiophen‐2‐ylmethyl)‐1H‐pyrazol‐3‐amine, hydrochloride salt]
Chromosome aberration result (structural aberrations) ([3]; hydrochloride salt (M179)): Positive ^e
Chromosome aberration result (structural aberrations) [3]: induced chromosomal aberrations
structural chromosomal aberrations ([3]; 4 + 16 h treatment in the presence of S9-mix, 100-1,840 μg/mL): No statistically significant or concentration‐related increases in structural chromosomal aberrations
polyploidy ([3]; any of the treatment conditions): No statistically significant or concentration‐related increases in polyploidy
Bacterial reverse mutation result [4]: did not show mutagenicity
Bacterial reverse mutation result ([4]; hydrochloride salt (M179)): Negative ^a
precipitate / background lawn toxicity ([4]; two studies): Neither precipitate nor background lawn toxicity was observed in the two studies performed

COS(C)(=O)=O [MMS, methyl methanesulfonate, reference compound]
frequency of MNPCEs, positive control ([2]; positive control, 40 mg/kg bw per day on days 2 and 3, ref BioReliance (2014)): statistically significant increases

CN(C)N=O [DMNA, dimethylnitrosamine]
BMDL10 [5]: 27 μg/kg bw per day
